Tests used:
Ehrlich solid tumor = assay: Comparative test for inhibition of Ehrlich solid tumor proliferation; assay type: in vivo, mouse; settings: An 15, Gh 15, AG60 30 mg/kg; for size of cancer tissue (solid tumor proliferation): i.m. once a day
Procedure: Comparative test for inhibition of Ehrlich solid tumor proliferation with acriflavine neutral(An), guanosine hydrate(Gh) and the composition(AG60) of the present invention
Normal 20 ICR mice(.male., 20±1 g) were divided into 4 groups such that each group included 5 mice. Ehrlich cancer cells were transplanted into the inguinal area of all experimental animals in an amount of 1×10^7 cells per animal. After 24 hours, the control group A received physiological saline in an amount of 10 ml/kg by intramuscular injection, once a day, for 15 days. As the comparative groups, the groups B and C received acriflavine neutral(An) in an amount of 15 mg/kg and guanosine hydrate(Gh) in an amount of 15 mg/kg, respectively, in the same manner as the control group. To the group D the composition (AG60) of the present invention was administered in an amount of 30 mg/kg in the same manner as the control group. During 15 days after the transplantation of cancer cells the proliferation of solid tumor in each group was observed.
The effects on the solid tumor proliferation of the composition(AG60) of the present invention, acriflavine neutral(An) and guanosine hydrate(Gh) were determined by measuring the size of cancer tissues in control group A, the acriflavine neutral group B, the guanosine hydrate group C and the present composition(AG60) group D from the fifth day to the fifteenth day after the transplantation of cancer cells at an interval of 2 days, and are presented in Table 3 and FIG. 5. […] In group D to which the composition(AG60) of the present invention was administered, the size of cancer tissue was measured as 1.5 mm after 5 days from transplantation and, thereafter, increased 0.35 mm every 2 days.

[1] = tested on: human hepatoma cells SK-HEP-1; assay: MTT in vitro test, cell survival rate of human hepatoma cell line SK-HEP-1; assay type: cell-based
Procedure: (§1) In vitro test for the effect of the composition (AG60) of the present invention on mouse lung cancer cells 3LL and human hepatoma cells SK-HEP-1
(§2) Cancer cells used for this test include human hepatoma cell line SK-HEP-1 and mouse lung cancer cell line 3LL, as recommended by the U.S. NCI(National Cancer Institute).
(§3) These cell lines were incubated in the culture media prepared by adding 10% inactivated FBS(fetal bovine serum), 100 μg/ml of streptomycin and 100 units/ml of penicillin to RPMI 1640 medium, at 37° C. in an incubator(Heraus) under 5% CO2 and 100% humidity. […] After 2 days, the survival rate of cells was calculated by carrying out MTT method using determination of dehydrogenase enzyme in cellular mitochondria and measuring the absorbance at 540 nm by means of a spectrophotometer (ELISA reader), to determine the anti-cancer activity of the composition according to the present invention against respective cancer cells. MTT test is a method in which formazan precipitate formed by reduction of MTT with cellular mitochondria dehydrogenase in living cells is dissolved and then the absorbance is measured. Thus, since in vigorously dividing cancer cells the enzyme is fully active, by the action of enzyme MTT is reduced to form the precipitate which can be dissolved to determine the absorbance, thereby identifying the survival rate of respective cells. […]

[2] = tested on: mouse lung cancer cells 3LL; assay: MTT in vitro test, cell survival rate of mouse lung cancer cell line 3LL; assay type: cell-based
Procedure: as §1, §2, §3

[3] = cold / warm water; cited from earlier work

SMILES: Nc1nc2c(ncn2[C@@H]2O[C@H](CO)[C@@H](O)[C@H]2O)c(=O)[nH]1.O [Guanosine hydrate]
- size of cancer tissue (solid tumor proliferation) (Ehrlich solid tumor; day 5): 4.7 mm
- size of cancer tissue (solid tumor proliferation) (Ehrlich solid tumor; day 7): 6.8 mm
- size of cancer tissue (solid tumor proliferation) (Ehrlich solid tumor; day 9): 8.5 mm
- size of cancer tissue (solid tumor proliferation) (Ehrlich solid tumor; day 11): 12.3 mm
- size of cancer tissue (solid tumor proliferation) (Ehrlich solid tumor; day 13): 14.5 mm
- size of cancer tissue (solid tumor proliferation) (Ehrlich solid tumor; day 15): 18.2 mm
- inhibition of solid tumor proliferation in words (Ehrlich solid tumor; i.m. once a day for 15 days): showed the similar proliferation pattern to each other
- IC50 ([1]; Homo sapiens, SK-HEP1, 48 h, read-out: ID value (survival rate of cells)): 1530 µg/mL
- cytotoxicity / anti-cancer activity in words ([1]; SK-HEP-1 cells): did not show any anti-cancer activity
- cytotoxicity / anti-cancer activity in words ([2]; 3LL cells): did not show any anti-cancer activity
- IC50 ([2]; Mus musculus, 3LL, 48 h, read-out: ID value (survival rate of cells)): 1520 µg/mL

SMILES: Nc1nc2c(ncn2[C@@H]2O[C@H](CO)[C@@H](O)[C@H]2O)c(=O)[nH]1 [Guanosine, 2-amino-9-β-D-ribofuranosyl-9H-purin-6-(1H)-one]
- solubility in water [3]: slighly soluble in cold water but soluble in warm water

Reference: patent US5891864A, “Anti-cancer compositions” (Han; Yung Bok, priority 1995, dated 1999)
